One may read the pIC50 as the IC50 on a negative log10 scale, so that one unit is a factor of ten. As usually defined, the inhibition is the share of the control response that was lost under treatment. A high value points to strong suppression.

One series deals with T1, Cytochrome P450 2B6 (Homo sapiens, UniProt P20813).
T1 sequence (P20813 whole entry): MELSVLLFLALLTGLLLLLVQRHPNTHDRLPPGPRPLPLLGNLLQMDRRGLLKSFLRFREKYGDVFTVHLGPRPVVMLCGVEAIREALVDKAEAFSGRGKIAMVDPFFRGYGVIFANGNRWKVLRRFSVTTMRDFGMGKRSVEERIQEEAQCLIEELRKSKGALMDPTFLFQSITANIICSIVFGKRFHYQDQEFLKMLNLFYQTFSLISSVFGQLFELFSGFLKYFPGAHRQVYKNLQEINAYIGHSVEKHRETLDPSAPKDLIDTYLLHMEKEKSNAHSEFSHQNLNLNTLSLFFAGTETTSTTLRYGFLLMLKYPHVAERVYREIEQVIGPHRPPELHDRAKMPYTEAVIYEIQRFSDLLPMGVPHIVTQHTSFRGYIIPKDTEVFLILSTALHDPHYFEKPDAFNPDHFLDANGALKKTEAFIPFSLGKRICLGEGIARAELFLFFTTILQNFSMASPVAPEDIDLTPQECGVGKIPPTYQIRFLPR
Briefly: Inhibition of human recombinant CYP2B6 expressed in insect microsomes. Type of series: ADME, Microsome.

In another series the target is T2, CYP19 (aromatase) (Homo sapiens, UniProt P11511).
T2 sequence (P11511 whole entry): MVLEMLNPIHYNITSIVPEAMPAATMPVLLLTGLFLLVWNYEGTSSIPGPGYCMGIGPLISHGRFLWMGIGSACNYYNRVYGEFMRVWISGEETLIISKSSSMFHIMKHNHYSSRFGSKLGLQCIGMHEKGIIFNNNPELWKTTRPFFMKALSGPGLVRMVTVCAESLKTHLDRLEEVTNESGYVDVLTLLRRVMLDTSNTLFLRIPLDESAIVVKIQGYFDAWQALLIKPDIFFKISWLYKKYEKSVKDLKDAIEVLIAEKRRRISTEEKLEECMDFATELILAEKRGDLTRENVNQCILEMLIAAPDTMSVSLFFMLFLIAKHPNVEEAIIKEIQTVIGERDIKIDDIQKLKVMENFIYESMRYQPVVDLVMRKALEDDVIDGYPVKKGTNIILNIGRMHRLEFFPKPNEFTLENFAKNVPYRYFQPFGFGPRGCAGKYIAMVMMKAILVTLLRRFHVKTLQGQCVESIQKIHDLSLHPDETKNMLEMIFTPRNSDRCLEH
The series can be described thus: Inhibition of human placental CYP19 at 500 nM.

The nature of series [1]: Plasma concentration in Wistar rat plasma at 5 mg/kg, po after 2 hrs. Further details: dose 5 mg/kg, route oral. Type of series: ADME, organism-based.
In the next series the target is Cytochrome P450 2C19 (Homo sapiens, UniProt P33261). The series can be described thus: Inhibition of human recombinant CYP2C19 expressed in insect microsomes. Type of series: ADME, Microsome.

pIC50: −log10 of the molar value.

Cytochrome P450 2C19, sequence (P33261 whole entry): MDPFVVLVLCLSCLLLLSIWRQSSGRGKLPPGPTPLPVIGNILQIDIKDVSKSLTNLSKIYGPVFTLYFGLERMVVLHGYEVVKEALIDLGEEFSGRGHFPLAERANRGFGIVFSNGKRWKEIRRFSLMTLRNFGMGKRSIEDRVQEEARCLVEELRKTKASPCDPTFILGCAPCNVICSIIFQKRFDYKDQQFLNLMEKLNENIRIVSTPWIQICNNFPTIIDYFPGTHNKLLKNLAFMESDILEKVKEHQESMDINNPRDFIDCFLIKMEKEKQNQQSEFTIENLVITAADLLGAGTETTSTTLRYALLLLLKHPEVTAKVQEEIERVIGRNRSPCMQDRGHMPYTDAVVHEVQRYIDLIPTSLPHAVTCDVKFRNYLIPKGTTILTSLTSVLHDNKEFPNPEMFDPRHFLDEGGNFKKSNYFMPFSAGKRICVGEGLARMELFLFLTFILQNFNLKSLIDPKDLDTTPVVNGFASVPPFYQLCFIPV

Take `COc1ccc2cc(-c3cncc4ccccc34)ccc2c1`: the negative-log IC50 (pIC50) at Cytochrome P450 2B6 was 4.78; at Cytochrome P450 2C19, 5.45. At 0.5 µM the inhibition against CYP19 (aromatase) was 7%. Also, in series [1], the concentration at 2 h amounted to 55.8 ng/mL.

These data come from ChEMBL document CHEMBL1156596, “Overcoming undesirable CYP1A2 inhibition of pyridylnaphthalene-type aldosterone synthase inhibitors: influence of heteroaryl derivatization on potency and selectivity” (J Med Chem, 2008).
